Measurements as given in patent publication US12521329B2, “Antimicrobial mixture containing 4-(3-ethoxy-4-hydroxyphenyl) butan-2-one, and cosmetic composition containing same” (L'OREAL, priority 2017, dated 2026).

Key:
Assay in all cases: MIC / synergy (FIC index) microplate growth test, optical density 620 nm
Assay type in all cases: cell-based
[1] = tested on: Candida albicans ATCC 10231
Protocol: The microbial strain Candida albicans ATCC 10231 and a double-concentration Sabouraud broth liquid culture medium were used.
(§1) A 96-well microplate at an incubation temperature of 32.5° C. is used.
(§2) The incubation time of the microplate for the abovementioned two strains is: • from 18 to 24 h aerobically for Candida albicans and Staphylococcus aureus. • from 24 hours to 48 hours aerobically for Aspergillus niger Tests
(§3) A 10% (weight/volume) stock solution was prepared by mixing 1 g of compound in 9 ml of aqueous 1‰ agar solution. Successive dilutions were made with the 1‰ agar solution.
(§4) 50 μl of each of the daughter solutions obtained containing compound A or B are added to the microplate wells. 100 μl of Sabouraud liquid nutrient broth inoculated at double concentration with the Candida albicans strain and 50 μl of aqueous 1‰ agar solution are also added thereto.
as §4, with “and 50 μl of each of the daughter solutions obtained containing compound” for “or”, “strain” for “strain and 50 μl of aqueous 1‰ agar solution”
(§5) A positive microbial growth control was also prepared. The positive microbial growth control corresponds to the mixture of 100 μl of aqueous 1‰ agar solution with 100 μl of Sabouraud liquid nutrient broth inoculated at double concentration with the Candida albicans strain in the absence of compounds A and B.
(§6) An absorbance control was performed in parallel on compounds A and B alone. This control corresponds to 100 μl of double concentration sterile Sabouraud liquid nutrient broth+100 μl of double concentration compound A or B.
(§7) In the three cases (absorbance control, growth control and test), the final volume present in each of the microplate wells is 200 μl.
(§8) In the two cases (test and control), the inoculum represents the concentration of the Candida albicans strain present in the final volume of the wells (200 μl) and is between 2 and 6×10^5 cfu/ml of Candida albicans.
(§9) The minimum inhibitory concentration (MIC) of each compound A and B alone and in combination was determined in a known manner by means of optical density measurements at a wavelength of 620 nm.

[2] = tested on: Staphylococcus aureus ATCC 6538; details: Example 1
Protocol: The microbial strain Staphylococcus aureus ATCC 6538 and a double-concentration nutrient broth liquid culture medium were used.
as §1, §2, §3, §4
as §4, with “and 50 μl of each of the daughter solutions obtained containing compound” for “or”, “strain” for “strain and 50 μl of aqueous 1‰ agar solution”
as §5, §6, §7, §8, §9
The test as described above (tests, absorbance control and growth control) was performed again to test the combination A+B on the Staphylococcus aureus strain and on the Aspergillus niger strain as appropriate.

[3] = tested on: Aspergillus niger ATCC 6275; details: Example 5
Excerpt: FIC Index=(MIC of A with B/MIC of A)+(MIC of B with A/MIC of B) with: • MIC of A with B: minimum concentration of product A in the combination A+B which makes it possible to obtain an inhibitory effect; • MIC of B with A: minimum concentration of product B in the combination A+B which makes it possible to obtain an inhibitory effect; • MIC of A: minimum inhibitory concentration of product A alone; • MIC of B: minimum inhibitory concentration of product B alone. […] A 96-well microplate at an incubation temperature of 32.5° C. is used. The incubation time of the microplate for the abovementioned two strains is: • from 18 to 24 h aerobically for Candida albicans and Staphylococcus aureus. • from 24 hours to 48 hours aerobically for Aspergillus niger Tests […] Successive dilutions were made with the 1‰ agar solution. 50 μl of each of the daughter solutions obtained containing compound A or B are added to the microplate wells. 100 μl of Sabouraud liquid nutrient broth inoculated at double concentration with the Candida albicans strain and 50 μl of aqueous 1‰ agar solution are also added thereto. 50 μl of each of the daughter solutions obtained containing compound A and 50 μl of each of the daughter solutions obtained containing compound B are added to the microplate wells. 100 μl of Sabouraud liquid nutrient broth inoculated at double concentration with the Candida albicans strain are also added thereto. A positive microbial growth control was also prepared. […] An absorbance control was performed in parallel on compounds A and B alone. This control corresponds to 100 μl of double concentration sterile Sabouraud liquid nutrient broth+100 μl of double concentration compound A or B. […] In the two cases (test and control), the inoculum represents the concentration of the Candida albicans strain present in the final volume of the wells (200 μl) and is between 2 and 6×10^5 cfu/ml of Candida albicans. […] The test as described above (tests, absorbance control and growth control) was performed again to test the combination A+B on the Staphylococcus aureus strain and on the Aspergillus niger strain as appropriate.

Question: Which results are given for `N=C(N)c1ccc(OCCCCCCOc2ccc(C(=N)N)cc2)cc1` [B4, hexamidine diisethionate, reference compound]?
Answer: % MIC of B4 alone ([1]; Example 4): 0.005%; microbial growth percentage ([1]; Example 4, 0.00125 weight % B4 alone): 78%; microbial growth percentage ([1]; Example 4, 0.0025 weight % B4 alone): 59%; microbial growth percentage ([1]; Example 4, 0.005 weight % B4 alone): 3%

Question: Which microbial growth percentage ([1]; Example 1, 0.025 weight % A alone) does the source give for `CCOc1cc(CCC(C)=O)ccc1O` [A, 4-(3-ethoxy-4-hydroxyphenyl)butan-2-one] here?
Answer: 84%

Question: What about the microbial growth percentage ([1]; Example 1, 0.05 weight % A alone) of the same compound?
Answer: 71%

Question: What about the microbial growth percentage ([1]; Example 1, 0.1 weight % A alone) of the same compound?
Answer: 48%

Question: And the microbial growth percentage ([1]; Example 1, 0.2 weight % A alone)?
Answer: 10%

Question: What about the “% MIC of A alone” value ([1]; Example 1, growth <= 20%, or even < 25%) of the same compound?
Answer: 0.2%

Question: And the microbial growth percentage ([1]; Example 2, 0.025 weight % A alone)?
Answer: 52%

Question: And the microbial growth percentage ([1]; Example 2, 0.05 weight % A alone)?
Answer: 31%

Question: What about the microbial growth percentage ([1]; Example 2, 0.1 weight % A alone) of the same compound?
Answer: 18%

Question: And the “% MIC A” value ([1]; Example 2, A alone)?
Answer: 0.1%

Question: What about the “% MIC of A alone” value ([1]; Example 3) of the same compound?
Answer: 0.2%

Question: And the microbial growth percentage ([1]; Example 3, 0.025 weight % A alone)?
Answer: 71%

Question: What about the microbial growth percentage ([1]; Example 3, 0.05 weight % A alone) of the same compound?
Answer: 65%

Question: And the microbial growth percentage ([1]; Example 3, 0.1 weight % A alone)?
Answer: 44%

Question: And the microbial growth percentage ([1]; Example 3, 0.2 weight % A alone)?
Answer: 4%

Question: What about the “% MIC of A alone” value ([1]; Example 4) of the same compound?
Answer: 0.2%

Question: And the microbial growth percentage ([1]; Example 4, 0.025 weight % A alone)?
Answer: 83%

Question: What about the microbial growth percentage ([1]; Example 4, 0.05 weight % A alone) of the same compound?
Answer: 71%

Question: And the microbial growth percentage ([1]; Example 4, 0.1 weight % A alone)?
Answer: 46%

Question: And the microbial growth percentage ([1]; Example 4, 0.2 weight % A alone)?
Answer: 6%

Question: What about the “% MIC of A alone” value ([1]; Example 5) of the same compound?
Answer: 0.1%

Question: And the microbial growth percentage ([1]; Example 5, 0.025 weight % A alone)?
Answer: 56%

Question: What about the microbial growth percentage ([1]; Example 5, 0.05 weight % A alone) of the same compound?
Answer: 39%

Question: And the microbial growth percentage ([1]; Example 5, 0.1 weight % A alone)?
Answer: 17%

Question: What about the microbial growth percentage ([2]; 0.0625 weight % A alone) of the same compound?
Answer: 87%

Question: And the microbial growth percentage ([2]; 0.125 weight % A alone)?
Answer: 77%

Question: And the microbial growth percentage ([2]; 0.25 weight % A alone)?
Answer: 78%

Question: What about the microbial growth percentage ([2]; 0.5 weight % A alone) of the same compound?
Answer: 4%

Question: What about the “% MIC of A alone” value ([2]; growth <= 20%, or even < 25%) of the same compound?
Answer: 0.5%

Question: What about the “% MIC of A alone” value [3] of the same compound?
Answer: 0.25%

Question: What about the microbial growth percentage ([3]; 0.0625 weight % A alone) of the same compound?
Answer: 85%

Question: What about the microbial growth percentage ([3]; 0.125 weight % A alone) of the same compound?
Answer: 43%

Question: And the microbial growth percentage ([3]; 0.25 weight % A alone)?
Answer: 4%

Question: `O=C1C(N(CO)C(=O)NCO)N(CO)C(=O)N1CO` (centres unmarked) [B3, 1-[1,3-bis(hydroxymethyl)-2,5-dioxoimidazolidin-4-yl]-1,3-bis(hydroxymethyl)urea] was tested. Which “% MIC of B3 alone” value ([1]; Example 3) did it give?
Answer: 0.125%

Question: And the microbial growth percentage ([1]; Example 3, 0.0625 weight % B3 alone)?
Answer: 55%

Question: And the microbial growth percentage ([1]; Example 3, 0.125 weight % B3 alone)?
Answer: 10%

Question: Which results are given for `Cc1cc(CC(C)CC(C)(C)C)n(O)c(=O)c1.NCCO` (centres unmarked) [B2, piroctone olamine, reference compound]?
Answer: microbial growth percentage ([1]; Example 2, 0.00125 weight % B2 alone): 35%; microbial growth percentage ([1]; Example 2, 0.0025 weight % B2 alone): 0%
